The results in this text go back to patent US20180179256A1 (priority 2015, published 2018).

Entries after “also recorded” stand apart in the source; their conditions may differ.

One assay deals with HLA-DR. Format: cell-based, human.
Take QITFMQALQLLLEVE [H7N9-12]: the “% Inhibition by HLA-DR blocking Ab” value came to 100%.

Regarding PRYVKQRSLLLATG [H7N9-13], the “% Inhibition by HLA-DR blocking Ab” value is 100%.

Consider IVYWKQWLSLKNLTQ [H7N9-14A], for which the “% Inhibition by HLA-DR blocking Ab” value worked out at 100%.

Turning to AANIIGILHLILWILDRL [H7N9-10], the “% Inhibition by HLA-DR blocking Ab” value amounted to 68% and the “Peptide-specific T cell response on blocking HLA-DR (in words)” value (“Peptide-specific T cell response” for short) was “only partially inhibited”.

For “PRYVKQSTLKLATG [IAV-2, reference compound]”, the “% Inhibition by HLA-DR blocking Ab” value came out at 73% and the “Peptide-specific T cell response” value is on record as “only partially inhibited”.

“PRYVKQNTLKLATG [IAV-3, reference compound]”: the “% Inhibition by HLA-DR blocking Ab” value was found to be 78% and the “Peptide-specific T cell response” value is reported as “only partially inhibited”.

Turning to SRKLLLIVQALRDNLEPG [H7N9-11], the “% Inhibition by HLA-DR blocking Ab” value was “increased response” and the “Peptide-specific T cell response” value is reported as “response increased; also recorded: response was absent except when HLA-DR was blocked”.

Take YAEMKWLLSNTDNAAFPQ [H7N9-2]: the “% Inhibition by HLA-DR blocking Ab” value is on record as 100%.

Take “PKYVKSNRLVLATG [IAV-4, reference compound]”: the “% Inhibition by HLA-DR blocking Ab” value was found to be 96% and the “Peptide-specific T cell response” value is “only partially inhibited”.

Take AVKLYKKLKREMTFHGA [H7N9-9]: the “% Inhibition by HLA-DR blocking Ab” value is given as 100%.

As for RIDFHWLMLNPNDTVTFS [H7N9-1], the “% Inhibition by HLA-DR blocking Ab” value turned out to be 46% and the “Peptide-specific T cell response” value is on record as “only partially inhibited”.

Regarding “PKYVKSTKLRLATG [IAV-1, reference compound]”, the “% Inhibition by HLA-DR blocking Ab” value was found to be 100%.

For the sequence KGILGFVFTLTVPSERGLQ [H7N9-3], the “% Inhibition by HLA-DR blocking Ab” value was found to be 97% and the “Peptide-specific T cell response” value is given as “only partially inhibited”.

With DKLYERVKRQLRENAEED [H7N9-8], the “% Inhibition by HLA-DR blocking Ab” value is 89% and the “Peptide-specific T cell response” value is “only partially inhibited”.

In the case of QPEWFRNVLSIAPIMFSNK [H7N9-4], the “% Inhibition by HLA-DR blocking Ab” value worked out at 100%.

In another assay the test system is Normal subject PBMC. Format: cell-based, human.
As for PRYVKQRSLLLATG [H7N9-13], the “Responses to the pool of IAV peptides (1-4) in presence of peptide” value (from here on “Responses to the pool of IAV peptides”) is “Reduced responses”, the “Suppression of T cell response to pool of H7N9 ICS peptides” value was “significantly suppressed T cell response to the pooled peptides; also recorded: significantly decreased” and the “Suppression of T cell responses to immunodominant HA peptides from circulating IAV strains” value was “significantly suppressed T cell response to IAV-3; also recorded: able to suppress responses”.

On to IVYWKQWLSLKNLTQ [H7N9-14A], for which the “Responses to the pool of IAV peptides” value is listed as “Reduced responses”.

In the case of WKQWLSLKNTLTQGSL [H7N9-14B], the “Responses to the pool of IAV peptides” value was “Reduced responses”.

As for AVKLYKKLKREMTFHGA [H7N9-9], the “Suppression of T cell response to pool of H7N9 ICS peptides” value is given as “did not suppress T cell responses”.
